Key:
Japanese bulrush = assay: Test Example 1: herbicidal activity, application before weed generation under submerged conditions (Table 16, symbol B); assay type: in vivo, Japanese bulrush (Schoenoplectus juncoides)
Procedure, shortened: (§1)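 Alluvial soil was flooded to 4 cm depth, weed seeds were sown mixed and 2.5-leaf rice seedlings were transplanted. On sowing day, the compound's emulsion, diluted in water to a set dose, was applied to the water surface. Plants grew at 25–30 °C and were scored 0–5 after three weeks.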

southern crabgrass [1] = assay: Test Example 5: herbicidal effect by foliage application, plastic box (Table 20, symbol F); assay type: in vivo, southern crabgrass (Digitaria ciliaris); details: foliage application
Procedure, shortened: (§2)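 Plants were sown into sterilized diluvial soil under about 1.5 cm cover and kept in a greenhouse at 25° C. to 30° C. Fourteen days on, foliage received an even spray of the diluted emulsion. Herbicidal or crop effect was judged three weeks afterwards.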

chickweed [2] = assay: Test Example 4: herbicidal effect by soil treatment (Table 19, symbol P); assay type: in vivo, common chickweed (Stellaria media)
Procedure, shortened: (§3)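 Pre-emergence style soil spray: seeds under ~1.5 cm sterilized diluvial soil received a uniform coat of emulsion diluted to the predetermined herbicide amount. Greenhouse 25–30° C; readout at week three on previously defined criteria.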

green foxtail [3] = assay: Test Example 5: herbicidal effect by foliage application, plastic box (Table 20, symbol G); assay type: in vivo, green foxtail (Setaria viridis); details: foliage application
Procedure, shortened: as §2

windgrass [4] = assay: Test Example 4: herbicidal effect by soil treatment (Table 19, symbol L); assay type: in vivo, windgrass (Apera spica-venti)
Procedure, shortened: as §3

chickweed [5] = assay: Test Example 5: herbicidal effect by foliage application, plastic box (Table 20, symbol P); assay type: in vivo, common chickweed (Stellaria media); details: foliage application, 176 g/ha, evaluated three weeks after application
Procedure, shortened: as §2

green foxtail [6] = assay: Test Example 4: herbicidal effect by soil treatment (Table 19, symbol G); assay type: in vivo, green foxtail (Setaria viridis)
Procedure, shortened: as §3

lambsquarters [7] = assay: Test Example 4: herbicidal effect by soil treatment (Table 19, symbol O); assay type: in vivo, lambsquarters (Chenopodium album)
Procedure, shortened: as §3

barnyard grass [8] = assay: Test Example 5: herbicidal effect by foliage application, plastic box (Table 20, symbol H); assay type: in vivo, barnyard grass (Echinochloa crus-galli); details: foliage application
Procedure, shortened: as §2

rice flat sedge = assay: Test Example 3: herbicidal effect by foliage application, Wagner pot (Table 18, symbol E); assay type: in vivo, rice flat sedge (Cyperus iria)
Procedure, shortened: (§4)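 Plants were sown in alluvial soil held under 0.1–0.5 cm standing water and grown 14 days in a greenhouse at 25–30 °C. An emulsifiable formulation, water-diluted to the set dose, was then sprayed onto the foliage, and effects were scored three weeks later using previously defined criteria.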

velvetleaf [9] = assay: Test Example 5: herbicidal effect by foliage application, plastic box (Table 20, symbol M); assay type: in vivo, velvetleaf (Abutilon theophrasti); details: foliage application
Procedure, shortened: as §2

velvetleaf [10] = assay: Test Example 4: herbicidal effect by soil treatment (Table 19, symbol M); assay type: in vivo, velvetleaf (Abutilon theophrasti)
Procedure, shortened: as §3

Italian ryegrass [11] = assay: Test Example 5: herbicidal effect by foliage application, plastic box (Table 20, symbol K); assay type: in vivo, Italian ryegrass (Lolium multiflorum); details: foliage application
Procedure, shortened: as §2

wild oat [12] = assay: Test Example 4: herbicidal effect by soil treatment (Table 19, symbol I); assay type: in vivo, wild oat (Avena fatua)
Procedure, shortened: as §3

lambsquarters [13] = assay: Test Example 5: herbicidal effect by foliage application, plastic box (Table 20, symbol O); assay type: in vivo, lambsquarters (Chenopodium album); details: foliage application
Procedure, shortened: as §2

persian speedwell [14] = assay: Test Example 4: herbicidal effect by soil treatment (Table 19, symbol R); assay type: in vivo, Persian speedwell (Veronica persica)
Procedure, shortened: as §3

barnyard grass [15] = assay: Test Example 4: herbicidal effect by soil treatment (Table 19, symbol H); assay type: in vivo, barnyard grass (Echinochloa crus-galli)
Procedure, shortened: as §3

windgrass [16] = assay: Test Example 5: herbicidal effect by foliage application, plastic box (Table 20, symbol L); assay type: in vivo, windgrass (Apera spica-venti); details: foliage application
Procedure, shortened: as §2

blackgrass [17] = assay: Test Example 5: herbicidal effect by foliage application, plastic box (Table 20, symbol J); assay type: in vivo, blackgrass (Alopecurus myosuroides); details: foliage application
Procedure, shortened: as §2

late watergrass = assay: Test Example 1: herbicidal activity, application before weed generation under submerged conditions (Table 16, symbol A); assay type: in vivo, late watergrass (Echinochloa oryzicola)
Procedure, shortened: as §1

blackgrass [18] = assay: Test Example 4: herbicidal effect by soil treatment (Table 19, symbol J); assay type: in vivo, blackgrass (Alopecurus myosuroides)
Procedure, shortened: as §3

Italian ryegrass [19] = assay: Test Example 4: herbicidal effect by soil treatment (Table 19, symbol K); assay type: in vivo, Italian ryegrass (Lolium multiflorum)
Procedure, shortened: as §3

oval-leafed pondweed = assay: Test Example 1: herbicidal activity, application before weed generation under submerged conditions (Table 16, symbol C); assay type: in vivo, oval-leafed pondweed (Monochoria vaginalis)
Procedure, shortened: as §1

redroot pigweed [20] = assay: Test Example 5: herbicidal effect by foliage application, plastic box (Table 20, symbol N); assay type: in vivo, redroot pigweed (Amaranthus retroflexus); details: foliage application, 176 g/ha, evaluated three weeks after application
Procedure, shortened: as §2

Chinese sprangletop = assay: Test Example 3: herbicidal effect by foliage application, Wagner pot (Table 18, symbol D); assay type: in vivo, chinese sprangletop (Leptochloa chinensis)
Procedure, shortened: as §4

wild oat [21] = assay: Test Example 5: herbicidal effect by foliage application, plastic box (Table 20, symbol I); assay type: in vivo, wild oat (Avena fatua); details: foliage application
Procedure, shortened: as §2

persian speedwell [22] = assay: Test Example 5: herbicidal effect by foliage application, plastic box (Table 20, symbol R); assay type: in vivo, Persian speedwell (Veronica persica); details: foliage application
Procedure, shortened: as §2

barnyard grass [23] = assay: Test Example 3: herbicidal effect by foliage application, Wagner pot (Table 18, symbol H); assay type: in vivo, barnyard grass (Echinochloa crus-galli)
Procedure, shortened: as §4

southern crabgrass [24] = assay: Test Example 4: herbicidal effect by soil treatment (Table 19, symbol F); assay type: in vivo, southern crabgrass (Digitaria ciliaris)
Procedure, shortened: as §3

redroot pigweed [25] = assay: Test Example 4: herbicidal effect by soil treatment (Table 19, symbol N); assay type: in vivo, redroot pigweed (Amaranthus retroflexus); details: amount of applied herbicide 344 g/ha
Procedure, shortened: as §3

[26] = 176 g/ha, evaluated three weeks after application
[27] = amount of applied herbicide 176 g/ha
[28] = amount of applied herbicide 344 g/ha
[29] = 344 g/ha, three weeks after application

Structure (SMILES): COc1ccccc1-c1sc2ccc(C)cc2c1-c1c(O)c(C)nn(C)c1=O [2-138]
- Herbicidal effect on B: Japanese bulrush (grade 0-5) (Japanese bulrush; 176 g/ha applied herbicide): 0 (Herbicidal rate of 5% or less (almost no effect))
- herbicidal effect on F: southern crabgrass (southern crabgrass [1]; [26]): 3 (Herbicidal rate of 40% or more and less than 70%)
- P: chickweed, herbicidal effect rating (chickweed [2]; [27]): 0 (Herbicidal rate of 5% or less (almost no effect))
- herbicidal effect on G: green foxtail (green foxtail [3]; [26]): 4 (Herbicidal rate of 70% or more and less than 90%)
- L: windgrass, herbicidal effect rating (windgrass [4]; [27]): 0 (Herbicidal rate of 5% or less (almost no effect))
- herbicidal effect on P: chickweed (chickweed [5]): 5 (Herbicidal rate of 90% or more (almost completely withered))
- G: green foxtail, herbicidal effect rating (green foxtail [6]; [27]): 4 (Herbicidal rate of 70% or more and less than 90%)
- O: lambsquarters, herbicidal effect rating (lambsquarters [7]; [27]): 5 (Herbicidal rate of 90% or more (almost completely withered))
- herbicidal effect on H: barnyard grass (barnyard grass [8]; [26]): 4 (Herbicidal rate of 70% or more and less than 90%)
- herbicidal effect on E: rice flat sedge (rice flat sedge; [27]): 4 (Herbicidal rate of 70% or more and less than 90%)
- herbicidal effect on M: velvetleaf (velvetleaf [9]; [26]): 5 (Herbicidal rate of 90% or more (almost completely withered))
- M: velvetleaf, herbicidal effect rating (velvetleaf [10]; [27]): 0 (Herbicidal rate of 5% or less (almost no effect))
- herbicidal effect on K: Italian ryegrass (Italian ryegrass [11]; [26]): 3 (Herbicidal rate of 40% or more and less than 70%)
- I: wild oat, herbicidal effect rating (wild oat [12]; [27]): 0 (Herbicidal rate of 5% or less (almost no effect))
- herbicidal effect on O: lambsquarters (lambsquarters [13]; [26]): 4 (Herbicidal rate of 70% or more and less than 90%)
- R: persian speedwell, herbicidal effect rating (persian speedwell [14]; [27]): 0 (Herbicidal rate of 5% or less (almost no effect))
- H: barnyard grass, herbicidal effect rating (barnyard grass [15]; [27]): 3 (Herbicidal rate of 40% or more and less than 70%)
- herbicidal effect on L: windgrass (windgrass [16]; [26]): 4 (Herbicidal rate of 70% or more and less than 90%)
- herbicidal effect on J: blackgrass (blackgrass [17]; [26]): 3 (Herbicidal rate of 40% or more and less than 70%)
- Herbicidal effect on A: late watergrass (grade 0-5) (late watergrass; 176 g/ha applied herbicide): 5 (Herbicidal rate of 90% or more (almost completely withered))
- J: blackgrass, herbicidal effect rating (blackgrass [18]; [27]): 3 (Herbicidal rate of 40% or more and less than 70%)
- K: Italian ryegrass, herbicidal effect rating (Italian ryegrass [19]; [27]): 0 (Herbicidal rate of 5% or less (almost no effect))
- Herbicidal effect on C: oval-leafed pondweed (grade 0-5) (oval-leafed pondweed; 176 g/ha applied herbicide): 0 (Herbicidal rate of 5% or less (almost no effect))
- herbicidal effect on N: redroot pigweed (redroot pigweed [20]): 0 (Herbicidal rate of 5% or less (almost no effect))
- herbicidal effect on D: Chinese sprangletop (Chinese sprangletop; [27]): 1 (Herbicidal rate of 5% or more and less than 20%)
- herbicidal effect on I: wild oat (wild oat [21]; [26]): 0 (Herbicidal rate of 5% or less (almost no effect))
- herbicidal effect on R: persian speedwell (persian speedwell [22]; [26]): 5 (Herbicidal rate of 90% or more (almost completely withered))
- herbicidal effect on H: barnyard grass (barnyard grass [23]; [27]): 5 (Herbicidal rate of 90% or more (almost completely withered))
- F: southern crabgrass, herbicidal effect rating (southern crabgrass [24]; [27]): 0 (Herbicidal rate of 5% or less (almost no effect))

Structure (SMILES): CCCC(=O)Oc1c(C)nn(C)c(=O)c1-c1c(-c2ccc(F)cc2OC)sc2cc(OC)c(Cl)cc12 [5-076]
- Herbicidal effect, B: Japanese bulrush (Japanese bulrush; [28]): 0 (Herbicidal rate of 5% or less (almost no effect))
- herbicidal effect on southern crabgrass (F) (southern crabgrass [1]; [29]): 1 (Herbicidal rate of 5% or more and less than 20%)
- N: redroot pigweed, herbicidal effect grade (redroot pigweed [25]): 4 (Herbicidal rate of 70% or more and less than 90%)
- P: chickweed, herbicidal effect grade (chickweed [2]; [28]): 0 (Herbicidal rate of 5% or less (almost no effect))
- herbicidal effect on green foxtail (G) (green foxtail [3]; [29]): 4 (Herbicidal rate of 70% or more and less than 90%)
- L: windgrass, herbicidal effect grade (windgrass [4]; [28]): 0 (Herbicidal rate of 5% or less (almost no effect))
- G: green foxtail, herbicidal effect grade (green foxtail [6]; [28]): 3 (Herbicidal rate of 40% or more and less than 70%)
- O: lambsquarters, herbicidal effect grade (lambsquarters [7]; [28]): 3 (Herbicidal rate of 40% or more and less than 70%)
- herbicidal effect on barnyard grass (H) (barnyard grass [8]; [29]): 3 (Herbicidal rate of 40% or more and less than 70%)
- herbicidal effect on rice flat sedge (E) (rice flat sedge; 344 g/ha): 0 (Herbicidal rate of 5% or less (almost no effect))
- herbicidal effect on velvetleaf (M) (velvetleaf [9]; [29]): 3 (Herbicidal rate of 40% or more and less than 70%)
- M: velvetleaf, herbicidal effect grade (velvetleaf [10]; [28]): 1 (Herbicidal rate of 5% or more and less than 20%)
- herbicidal effect on Italian ryegrass (K) (Italian ryegrass [11]; [29]): 0 (Herbicidal rate of 5% or less (almost no effect))
- I: wild oat, herbicidal effect grade (wild oat [12]; [28]): 0 (Herbicidal rate of 5% or less (almost no effect))
- herbicidal effect on lambsquarters (O) (lambsquarters [13]; [29]): 4 (Herbicidal rate of 70% or more and less than 90%)
- R: persian speedwell, herbicidal effect grade (persian speedwell [14]; [28]): 0 (Herbicidal rate of 5% or less (almost no effect))
- H: barnyard grass, herbicidal effect grade (barnyard grass [15]; [28]): 1 (Herbicidal rate of 5% or more and less than 20%)
- herbicidal effect on windgrass (L) (windgrass [16]; [29]): 3 (Herbicidal rate of 40% or more and less than 70%)
- herbicidal effect on blackgrass (J) (blackgrass [17]; [29]): 1 (Herbicidal rate of 5% or more and less than 20%)
- Herbicidal effect, A: late watergrass (late watergrass; [28]): 2 (Herbicidal rate of 20% or more and less than 40%)
- J: blackgrass, herbicidal effect grade (blackgrass [18]; [28]): 0 (Herbicidal rate of 5% or less (almost no effect))
- K: Italian ryegrass, herbicidal effect grade (Italian ryegrass [19]; [28]): 0 (Herbicidal rate of 5% or less (almost no effect))
- Herbicidal effect, C: oval-leafed pondweed (oval-leafed pondweed; [28]): 1 (Herbicidal rate of 5% or more and less than 20%)
- herbicidal effect on Chinese sprangletop (D) (Chinese sprangletop; 344 g/ha): 0 (Herbicidal rate of 5% or less (almost no effect))
- herbicidal effect on wild oat (I) (wild oat [21]; [29]): 0 (Herbicidal rate of 5% or less (almost no effect))
- herbicidal effect on persian speedwell (R) (persian speedwell [22]; [29]): 0 (Herbicidal rate of 5% or less (almost no effect))
- herbicidal effect on barnyard grass (H) (barnyard grass [23]; 344 g/ha): 5 (Herbicidal rate of 90% or more (almost completely withered))
- F: southern crabgrass, herbicidal effect grade (southern crabgrass [24]; [28]): 3 (Herbicidal rate of 40% or more and less than 70%)

From US20230085307A1, “PYRIDAZINONE COMPOUND AND HERBICIDE” (NISSAN CHEMICAL CORPORATION, priority 2019, published 2023)
